Results on three molecules are retold here after patent publication US20200179402A1, “MONOHYDROXYLATED 17ALPHA-HYDROXYPROGESTERONE CAPROATE FOR REDUCING CONTRACTILITY” (Indiana University Research and Technology Corporation, priority 2016, published 2020).

Series [1] relates to THP-1 mononuclear cells. As to the kind of experiment: LPS-induced cytokine production by THP-1 mononuclear cells (multiplex assay). Format: cell-based. The settings on record: 100 nM for 24 hours, then LPS 1 μg/mL for 24 hours. The procedure: In this Example, the ability of HPC—OH to decrease systemic inflammation-induced myometrial contractility was compared to HPC and progesterone (P4).
(§1) An in vitro model of systemic inflammation-induced uterine contractility was created with mononuclear and myometrial cell cultures to assess the effect of progestogen treatment. THP-1 mononuclear cells were cultured with HPC—OH (17α-hydroxyprogesteryl 6-hydroxycaproate), HPC, or P4 (all at 100 nM) for 24 hours then treated with lipopolysaccharide (LPS, 1 μg/mL) for 24 hours. Culture supernatant was characterized by multiplex assay for 7 inflammation-related cytokines: IL-1α, […], IL-6, IL-8, IL-10, TNFα, and MCP-1. Next, PHM1-41 human pregnancy myometrial cells pretreated with HPC for 24 hours were incubated with THP-1 culture supernatant (from the previous step) for 24 hours. Myometrial contractility was assessed after stimulation with 100 μM oxytocin by in-cell western (ICW) quantification of myosin light chain (MLC20) phosphorylation, a molecular event preceding contractility.

Series [2] has as its system human myometrial tissue. Nature of the series: Oxytocin-induced uterine contractility in human myometrial tissue strips (myograph). Format: cell-based. The settings on record: oxytocin 100 nm; for oxytocin-induced contractile force (AUC) / oxytocin-induced contractile frequency: 10^−6 M for 30 minutes, over a 4-hour period, normalized to matched vehicle control (DMSO). The procedure: In this Example, the effect of the monohydroxylated 17α-hydroxyprogesterone caproate (HPC-OH), 17α-hydroxyprogesteryl 6-hydroxycaproate, as compared to its parent compound, 17-hydoxyprogesterone caproate (HPC), and progesterone (P4) was analyzed in the setting of oxytocin-induced uterine contractility in human myometrial tissue. […] Myometrial strips (10 mm) were mounted in a digital myograph system ([…]) and maintained in modified Krebs buffer solution at physiologic temperature (37° C.) with constant premixed gas inflow. Oxytocin-induced (100 nm) contractility was measured before and after treatment with HPC-OH, HPC, or P4 (1 μm) for 30 minutes. Myometrial contractile frequency and force (AUC) were determined for each treatment over a 4-hour period and normalized to a matched vehicle control (DMSO). Statistical analysis was by student t-test (GraphPad Prism 7.0a). Statistical significance was defined as p<0.05.

Series [3] concerns PHM1-41 human pregnancy myometrial cells. As to the kind of experiment: MLC20 phosphorylation by in-cell western in HPC-primed myometrial cells incubated with THP-1 culture supernatant. Format: cell-based. The settings on record: supernatant of treated THP-1 cells for 24 hours, 100 μM oxytocin. As to the method: as §1
The conditions of series [4]: women with history of prior spontaneous preterm birth, clinical trials; cited from earlier work.
Series [5] is described as follows: Pharmacokinetics in pregnant patients given intramuscular hydroxyprogesterone caproate. The settings on record: female, human, plasma, im, 250 mg; for AUC: AUC(1-t); for AUC / Cmax / Tmax: 250 mg intramuscular; for AUC / Cmax: mean (standard deviation).
Method: (§2) Female patients with a singleton pregnancy received intramuscular doses of 250 mg hydroxyprogesterone caproate for the reduction of preterm birth starting between 16 weeks 0 days and 20 weeks 6 days. More particularly, the patients were divided into three sample groups: Group 1 (patients at 16-20 weeks gestation); Group 2 (patients at 24-28 weeks gestation); and Group 3 (patients at 32-36 weeks gestation). All patients had blood drawn daily for 7 days to evaluate pharmacokinetics.
The conditions of series [6]: human, in vivo.
Method: as §2
Setting [7] is: Group 1 (16-20 weeks gestation, N = 6).
[8] abbreviates: Group 2 (24-28 weeks gestation, N = 8).
[9] abbreviates: Group 3 (32-36 weeks gestation, N = 11).

The half-life is the time in which the quantity being followed falls by half. For orientation: AUC means concentration integrated over time. Higher therefore signals high exposure. In general, Cmax refers to the maximum level reached in the sampled fluid or tissue. The Tmax is the time from dosing to the highest level.

Regarding `CC(=O)[C@H]1CC[C@H]2[C@@H]3CCC4=CC(=O)CC[C@]4(C)[C@H]3CC[C@]12C` [P4, progesterone], in series [1], the “production of IL-10” value was “did not diminish”. In series [2], the “oxytocin-induced contractile force (AUC)” value is recorded as 75%+/−30% and the oxytocin-induced contractile frequency was 63%+/−18%. For the same molecule, the MLC20 phosphorylation entry in series [3] was “Increased phosphorylation”.

`CCCCCC(=O)O[C@]1(C(C)=O)CC[C@H]2[C@@H]3CCC4=CC(=O)CC[C@]4(C)[C@H]3CC[C@@]21C` [HPC, 17α-hydroxyprogesterone caproate]: the “risk reduction of recurrent preterm delivery” value in series [4] is recorded as 33%. In series [1], the “production of IL-10” value is recorded as “significantly reduced”, the “production of MCP-1” value was “decreased” and the “significantly increase TNFα production” value is given as “significantly increase”. Moreover, the half-life in series [5] was 394 h. Further, in series [5] (setting [7]), the area under the curve (AUC) stood at 571 ng·h/mL, the peak level (Cmax) was 5 ng/mL and the Tmax was 132 h. Besides, in series [5] (setting [8]), the area under the curve (AUC) worked out at 1270 ng·h/mL, the peak level (Cmax) was 12.5 ng/mL and the Tmax was 24 h. In series [5] (setting [9]), the AUC was 1270 ng·h/mL, the peak concentration (Cmax) was 12.3 ng/mL and the Tmax is 48 h. In addition, the oxytocin-induced contractile frequency in series [2] is listed as 71%+/−15%.

For the molecule `CC(=O)[C@@]1(OC(=O)CCCCCO)CC[C@H]2[C@@H]3CCC4=CC(=O)CC[C@]4(C)[C@H]3CC[C@@]21C` [HPC—OH, 17α-hydroxyprogesteryl 6-hydroxycaproate], in series [1], the “monocyte production of IL-1α” value is reported as “did not result in a statistically significant change”, the “monocyte production of IL-1β” value is on record as “did not result in a statistically significant change”, the “monocyte production of IL-6” value is listed as “did not result in a statistically significant change” and the “monocyte production of IL-8” value is recorded as “did not result in a statistically significant change”. In addition, in series [1], the “production of IL-10” value was “did not diminish”, the “production of MCP-1” value is listed as “decreased” and the “significantly increase TNFα production” value was “not”. Besides, the “levels of TNFα produced, compared with exposure to HPC” value in series [1] (versus HPC) was “significantly lower”. The “half-life as compared to HPC” value in series [6] is “longer half-life”. For the same molecule, in series [2], the “oxytocin-induced contractile force (AUC)” value was found to be 66%+/−33% and the oxytocin-induced contractile frequency turned out to be 67%+/−21%. For the same molecule, the “contractile force when compared directly to HPC” value in series [2] (10^−6 M, compared directly to HPC) is reported as 64%+/−33%. Moreover, the “MLC20 phosphorylation compared with HPC treated supernatant” value in series [3] (versus HPC treated supernatant) is reported as “trended towards a significant decline”.
